The results in this text go back to US10174030B2 (priority 2014, dated 2019).

For the assay, the target named is LSD1 (Homo sapiens (Human), UniProt O60341). Nature of the assay: biochemical. On the procedure: After stopping the reactions plates were incubated for 30 minutes and read on a PHERAstar FS plate reader (BMG Labtech).

As to `COc1ccc(CC2(CN[C@@H]3C[C@H]3c3ccccc3)CCN(CC3(C(=O)O)CC3)CC2)cn1` [Example 69, 1-{[4-[(6-methoxypyridin-3-yl)methyl]-4-({[(1R,2S)-2-phenylcyclopropyl]amino}methyl)piperidin-1-yl]methyl}cyclopropanecarboxylic acid], the IC50 is < 100 nM.
